Target: T1, Recombinant human TPH1 (MBP tagged) (Homo sapiens, UniProt P17752)
T1 construct: cloning full length human TPH1 cDNA in to a bacterial pMAL-c5E expression vector; made in house; host or cells: E. coli BL21 (DE3)
T1 sequence (P17752 1-444): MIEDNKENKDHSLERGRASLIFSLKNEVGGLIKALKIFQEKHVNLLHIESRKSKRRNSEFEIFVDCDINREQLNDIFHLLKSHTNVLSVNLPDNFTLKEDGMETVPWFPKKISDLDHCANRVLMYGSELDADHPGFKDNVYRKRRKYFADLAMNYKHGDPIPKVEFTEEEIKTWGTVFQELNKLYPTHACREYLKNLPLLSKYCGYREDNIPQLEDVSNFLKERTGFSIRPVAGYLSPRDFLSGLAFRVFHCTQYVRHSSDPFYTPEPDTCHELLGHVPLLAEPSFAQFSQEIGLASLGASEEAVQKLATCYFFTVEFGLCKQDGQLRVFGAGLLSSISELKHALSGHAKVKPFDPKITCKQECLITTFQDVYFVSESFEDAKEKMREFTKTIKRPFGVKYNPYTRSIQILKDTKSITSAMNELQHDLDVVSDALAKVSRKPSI
Assay: TPH1 in vitro inhibition assay (kinetic fluorescence)
Type: biochemical
Conditions: TPH1 Range (TPH1 inhibition IC50)
Method in brief: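 Final mix: 15 nM MBP-TPH1, 30 μM Trp, 36 μM 6-methyltetrahydropterin, 25 μM ferrous ammonium sulfate, 50 mM MES pH 7.1, 1% DMSO, room temperature.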

Structure (SMILES)	IC50
CN(C)S(=O)(=O)c1cccc(-c2cc(Cl)ccc2[C@@H](Oc2cc(N3CCC4(CC3)CN[C@H](C(=O)O)C4)nc(N)n2)C(F)(F)F)c1 [Example 34cl, (S)-8-(2-amino-6-((R)-1-(5-chloro-3′-(N,N-dimethylsulfamoyl)-[1,1′-biphenyl]-2-yl)-2,2,2-trifluoroethoxy)pyrimidin-4-yl)-2,8-diazaspiro[4.5]decane-3-carboxylic acid]	50 to 300 nM

Same assay, conditions: read-out: TPH1 Range (TPH1 inhibition IC50)

IC50	Structure (SMILES)
50 to 300 nM	CCc1cccc(-c2cc(Cl)ccc2[C@@H](Oc2cc(N3CCC4(CC3)CN[C@H](C(=O)O)C4)nc(N)n2)C(F)(F)F)c1 [Example 34cd, (S)-8-(2-amino-6-((R)-1-(5-chloro-3′-ethyl-[1,1′-biphenyl]-2-yl)-2,2,2-trifluoroethoxy)pyrimidin-4-yl)-2,8-diazaspiro[4.5]decane-3-carboxylic acid]
300 to 3000 nM	Nc1nc(O[C@H](c2ccc(Cl)cc2-c2cccc(C(=O)NCCN3CCCC3)c2)C(F)(F)F)cc(N2CCC3(CC2)CN[C@H](C(=O)O)C3)n1 [Example 34cf, (S)-8-(2-amino-6-((R)-1-(5-chloro-3′-((2-(pyrrolidin-1-yl)ethyl)carbamoyl)-[1,1′-biphenyl]-2-yl)-2,2,2-trifluoroethoxy)pyrimidin-4-yl)-2,8-diazaspiro[4.5]decane-3-carboxylic acid]
50 to 300 nM	Nc1nc(O[C@H](c2ccc(Cl)cc2-c2cccc(C(=O)N3CCOCC3)c2)C(F)(F)F)cc(N2CCC3(CC2)CN[C@H](C(=O)O)C3)n1 [Example 34cg, (S)-8-(2-amino-6-((R)-1-(5-chloro-3′-(morpholine-4-carbonyl)-[1,1′-biphenyl]-2-yl)-2,2,2-trifluoroethoxy)pyrimidin-4-yl)-2,8-diazaspiro[4.5]decane-3-carboxylic acid]
< 50 nM	CN1CCN(C(=O)c2cccc(-c3cc(Cl)ccc3[C@@H](Oc3cc(N4CCC5(CC4)CN[C@H](C(=O)O)C5)nc(N)n3)C(F)(F)F)c2)CC1 [Example 34ch, (S)-8-(2-amino-6-((R)-1-(5-chloro-3′-(4-methylpiperazine-1-carbonyl)-[1,1′-biphenyl]-2-yl)-2,2,2-trifluoroethoxy)pyrimidin-4-yl)-2,8-diazaspiro[4.5]decane-3-carboxylic acid]
50 to 300 nM	Cc1ncc(-c2cc(Cl)ccc2[C@@H](Oc2cc(N3CCC4(CC3)CN[C@H](C(=O)O)C4)nc(N)n2)C(F)(F)F)s1 [Example 34ci, (S)-8-(2-amino-6-((R)-1-(4-chloro-2-(2-methylthiazol-5-yl)phenyl)-2,2,2-trifluoroethoxy)pyrimidin-4-yl)-2,8-diazaspiro[4.5]decane-3-carboxylic acid]
50 to 300 nM	Cn1cccc(-c2cc(Cl)ccc2[C@@H](Oc2cc(N3CCC4(CC3)CN[C@H](C(=O)O)C4)nc(N)n2)C(F)(F)F)c1=O [Example 34cj, (S)-8-(2-amino-6-((R)-1-(4-chloro-2-(1-methyl-2-oxo-1,2-dihydropyridin-3-yl)phenyl)-2,2,2-trifluoroethoxy)pyrimidin-4-yl)-2,8-diazaspiro[4.5]decane-3-carboxylic acid]
50 to 300 nM	CNS(=O)(=O)c1cccc(-c2cc(Cl)ccc2[C@@H](Oc2cc(N3CCC4(CC3)CN[C@H](C(=O)O)C4)nc(N)n2)C(F)(F)F)c1 [Example 34ck, (S)-8-(2-amino-6-((R)-1-(5-chloro-3′-(N-methylsulfamoyl)-[1,1′-biphenyl]-2-yl)-2,2,2-trifluoroethoxy)pyrimidin-4-yl)-2,8-diazaspiro[4.5]decane-3-carboxylic acid]
50 to 300 nM	CNC(=O)c1cccc(-c2cc(Cl)ccc2[C@@H](Oc2cc(N3CCC4(CC3)CN[C@H](C(=O)O)C4)nc(N)n2)C(F)(F)F)c1 [Example 34cm, (S)-8-(2-amino-6-((R)-1-(5-chloro-3′-(methylcarbamoyl)-[1,1′-biphenyl]-2-yl)-2,2,2-trifluoroethoxy)pyrimidin-4-yl)-2,8-diazaspiro[4.5]decane-3-carboxylic acid]
50 to 300 nM	CN(C)C(=O)c1cccc(-c2cc(Cl)ccc2[C@@H](Oc2cc(N3CCC4(CC3)CN[C@H](C(=O)O)C4)nc(N)n2)C(F)(F)F)c1 [Example 34cn, (S)-8-(2-amino-6-((R)-1-(5-chloro-3′-(dimethylcarbamoyl)-[1,1′-biphenyl]-2-yl)-2,2,2-trifluoroethoxy)pyrimidin-4-yl)-2,8-diazaspiro[4.5]decane-3-carboxylic acid]
50 to 300 nM	CCN(CC)C(=O)c1cccc(-c2cc(Cl)ccc2[C@@H](Oc2cc(N3CCC4(CC3)CN[C@H](C(=O)O)C4)nc(N)n2)C(F)(F)F)c1 [Example 34co, (S)-8-(2-amino-6-((R)-1-(5-chloro-3′-(diethylcarbamoyl)-[1,1′-biphenyl]-2-yl)-2,2,2-trifluoroethoxy)pyrimidin-4-yl)-2,8-diazaspiro[4.5]decane-3-carboxylic acid]
50 to 300 nM	Nc1nc(O[C@H](c2ccc(Cl)cc2-c2cccc3[nH]cnc23)C(F)(F)F)cc(N2CCC3(CC2)CN[C@H](C(=O)O)C3)n1 [Example 34cp, (S)-8-(6-((R)-1-(2-(1H-benzo[d]imidazol-4-yl)-4-chlorophenyl)-2,2,2-trifluoroethoxy)-2-aminopyrimidin-4-yl)-2,8-diazaspiro[4.5]decane-3-carboxylic acid]
< 50 nM	Nc1nc(O[C@H](c2ccc(Cl)cc2-c2cccc(C(=O)N3CCNCC3)c2)C(F)(F)F)cc(N2CCC3(CC2)CN[C@H](C(=O)O)C3)n1 [Example 34cq, (S)-8-(2-amino-6-((R)-1-(5-chloro-3′-(piperazine-1-carbonyl)-[1,1′-biphenyl]-2-yl)-2,2,2-trifluoroethoxy)pyrimidin-4-yl)-2,8-diazaspiro[4.5]decane-3-carboxylic acid]
50 to 300 nM	Nc1nc(O[C@H](c2ccc(Cl)cc2-c2cccc(C(=O)N3CCN(C4CC4)CC3)c2)C(F)(F)F)cc(N2CCC3(CC2)CN[C@H](C(=O)O)C3)n1 [Example 34cr, (S)-8-(2-amino-6-((R)-1-(5-chloro-3′-(4-cyclopropylpiperazine-1-carbonyl)-[1,1′-biphenyl]-2-yl)-2,2,2-trifluoroethoxy)pyrimidin-4-yl)-2,8-diazaspiro[4.5]decane-3-carboxylic acid]
50 to 300 nM	Nc1nc(O[C@H](c2ccc(Cl)cc2-c2ccccn2)C(F)(F)F)cc(N2CCC3(CC2)CN[C@H](C(=O)O)C3)n1 [Example 34cs, (S)-8-(2-amino-6-((R)-1-(4-chloro-2-(pyridin-2-yl)phenyl)-2,2,2-trifluoroethoxy)pyrimidin-4-yl)-2,8-diazaspiro[4.5]decane-3-carboxylic acid]
< 50 nM	Nc1nc(O[C@H](c2ccc(Cl)cc2-c2ncccn2)C(F)(F)F)cc(N2CCC3(CC2)CN[C@H](C(=O)O)C3)n1 [Example 34ct, (S)-8-(2-amino-6-((R)-1-(4-chloro-2-(pyrimidin-2-yl)phenyl)-2,2,2-trifluoroethoxy)pyrimidin-4-yl)-2,8-diazaspiro[4.5]decane-3-carboxylic acid]
< 50 nM	Nc1nc(O[C@H](c2ccc(Cl)cc2-c2cnccn2)C(F)(F)F)cc(N2CCC3(CC2)CN[C@H](C(=O)O)C3)n1 [Example 34cu, (S)-8-(2-amino-6-((R)-1-(4-chloro-2-(pyrazin-2-yl)phenyl)-2,2,2-trifluoroethoxy)pyrimidin-4-yl)-2,8-diazaspiro[4.5]decane-3-carboxylic acid]
< 50 nM	COCCOc1cccc(-c2cc(Cl)ccc2[C@@H](Oc2cc(N3CCC4(CC3)CN[C@H](C(=O)O)C4)nc(N)n2)C(F)(F)F)c1 [Example 34cv, (S)-8-(2-amino-6-((R)-1-(5-chloro-3′-(2-methoxyethoxy)-[1,1′-biphenyl]-2-yl)-2,2,2-trifluoroethoxy)pyrimidin-4-yl)-2,8-diazaspiro[4.5]decane-3-carboxylic acid]
50 to 300 nM	Nc1nc(O[C@H](c2ccc(Cl)cc2-c2ccccc2N)C(F)(F)F)cc(N2CCC3(CC2)CNC(C(=O)O)C3)n1 (stereo partly drawn) [Example 34d, 8-(2-amino-6-((R)-1-(2′-amino-5-chloro-[1,1′-biphenyl]-2-yl)-2,2,2-trifluoroethoxy)pyrimidin-4-yl)-2,8-diazaspiro[4.5]decane-3-carboxylic acid]
50 to 300 nM	Nc1nc(O[C@H](c2ccc(Cl)cc2-c2cccc([N+](=O)[O-])c2)C(F)(F)F)cc(N2CCC3(CC2)CNC(C(=O)O)C3)n1 (stereo partly drawn) [Example 34e, 8-(2-amino-6-((R)-1-(5-chloro-3′-nitro-[1,1′-biphenyl]-2-yl)-2,2,2-trifluoroethoxy)pyrimidin-4-yl)-2,8-diazaspiro[4.5]decane-3-carboxylic acid]
50 to 300 nM	Nc1cccc(-c2cc(Cl)ccc2[C@@H](Oc2cc(N3CCC4(CC3)CNC(C(=O)O)C4)nc(N)n2)C(F)(F)F)c1 (stereo partly drawn) [Example 34f, 8-(2-amino-6-((R)-1-(3′-amino-5-chloro-[1,1′-biphenyl]-2-yl)-2,2,2-trifluoroethoxy)pyrimidin-4-yl)-2,8-diazaspiro[4.5]decane-3-carboxylic acid]

Structure (SMILES)	IC50
Nc1nc(O[C@H](c2ccc(Cl)cc2-c2cccc(C(=O)NC3CCC(O)CC3)c2)C(F)(F)F)cc(N2CCC3(CC2)CN[C@H](C(=O)O)C3)n1 (stereo partly drawn) [Example 34cc, (S)-8-(2-amino-6-((R)-1-(5-chloro-3′-(((1R,4R)-4-hydroxycyclohexyl)carbamoyl)-[1,1′-biphenyl]-2-yl)-2,2,2-trifluoroethoxy)pyrimidin-4-yl)-2,8-diazaspiro[4.5]decane-3-carboxylic acid]	50 to 300 nM

Source: patent US11759462B2, “Spirocyclic compounds as tryptophan hydroxylase inhibitors” (priority 2013, dated 2023)
